US6355799B1, “Substituted benzene compounds, process for their preparation, and herbicidal and defoliant compositions containing them” (ISK Americas Incorporated, priority 1997, dated 2002)

Assays:
Type in all cases: in vivo
[1] = system: lambsquarters (Chenopodium album, CHEAL); experiment: Pre-emerge test, greenhouse herbicide activity screening; settings: pre-emerge, 14 days after application, scale 0-100
In short: (§1)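 Rating: 0–100 visual injury, 14 DAA. Application: acetone, 187 l/ha, 15–1000 g ai/ha, flat-fan track sprayer with nozzle 40–45 cm above soil or canopy. Post-emerge runs used 0.25% v/v surfactant on 2–3 leaf plants.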

[2] = system: large crabgrass (Digitaria sanguinalis, DIGSA); experiment: as above; settings: pre-emerge, 14 days after application, scale 0-100
In short: as §1

[3] = system: green foxtail (Setaria viridis, SETVI); experiment: as above; settings: pre-emerge, 14 days after application, scale 0-100
In short: as §1

[4] = system: ivyleaf morningglory (Ipomoea hederacea, IPOHE); experiment: as above; settings: pre-emerge, 14 days after application, scale 0-100
In short: as §1

[5] = system: velvetleaf (Abutilon theophrasti, ABUTH); experiment: as above; settings: pre-emerge, 14 days after application, scale 0-100
In short: as §1

[6] = system: sicklepod (Cassia obtusifolia, CASOB); experiment: as above; settings: pre-emerge, 14 days after application, scale 0-100
In short: as §1

[7] = system: barnyardgrass (Echinochloa crus-galli, ECHCG); experiment: as above; settings: pre-emerge, 14 days after application, scale 0-100
In short: as §1

[8] = system: johnsongrass (Sorghum halepense, SORHA); experiment: as above; settings: pre-emerge, 14 days after application, scale 0-100
In short: as §1

[9] = system: lambsquarters (Chenopodium album, CHEAL); experiment: Post-emerge test, greenhouse herbicide activity screening; settings: post-emerge, 14 days after application, rating scale 0-100
In short: (§2)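 Sandy loam pots; pre-emerge: sown 1 d pre-spray, surface-watered after, then bottom-watered. Post-emerge: sown 8–21 d before, 2–3 leaf stage, + 0.25% v/v NIS, bottom-watered. Acetone, 187 l/ha track spray, 15–1000 g ai/ha. 0–100 injury score, day 14.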

[10] = system: large crabgrass (Digitaria sanguinalis, DIGSA); experiment: as above; settings: post-emerge, 14 days after application, rating scale 0-100
In short: as §2

[11] = system: green foxtail (Setaria viridis, SETVI); experiment: as above; settings: post-emerge, 14 days after application, rating scale 0-100
In short: as §2

[12] = system: redroot pigweed (Amaranthus retroflexus, AMARE); experiment: as above; settings: post-emerge, 14 days after application, rating scale 0-100
In short: as §2

[13] = system: ivyleaf morningglory (Ipomoea hederacea, IPOHE); experiment: as above; settings: post-emerge, 14 days after application, rating scale 0-100
In short: as §2

[14] = system: velvetleaf (Abutilon theophrasti, ABUTH); experiment: as above; settings: post-emerge, 14 days after application, rating scale 0-100
In short: as §2

[15] = system: sicklepod (Cassia obtusifolia, CASOB); experiment: as above; settings: post-emerge, 14 days after application, rating scale 0-100
In short: as §2

[16] = system: barnyardgrass (Echinochloa crus-galli, ECHCG); experiment: as above; settings: post-emerge, 14 days after application, rating scale 0-100
In short: as §2

[17] = system: field corn (Zea mays L., var. Dekalb 535, CORN); experiment: Pre-emerge test, crop safety; settings: pre-emerge, 14 days after application, scale 0-100
In short: as §2

[18] = system: upland rice (Oryza sp., var. Tebonnet, RICE); experiment: Pre-emerge test, crop safety; settings: pre-emerge, 14 days after application, scale 0-100
In short: as §2

[19] = system: field corn (Zea mays L., var. Dekalb 535, CORN); experiment: Post-emerge test, crop safety; settings: post-emerge, 14 days after application, rating scale 0-100
In short: (§3)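 Plants grown in 10 cm pots of sandy loam mix received acetone-dissolved compounds through a moving flat-fan nozzle. Doses ranged from 15 to 1000 g ai/ha. Pre-emerge pots were seeded one day earlier, post-emerge pots 8–21 days earlier. Fourteen days on, each pot was graded 0–100 for damage.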

[20] = system: upland rice (Oryza sp., var. Tebonnet, RICE); experiment: Post-emerge test, crop safety; settings: post-emerge, 14 days after application, rating scale 0-100
In short: as §3

[21] = system: redroot pigweed (Amaranthus retroflexus, AMARE); experiment: Pre-emerge test, greenhouse herbicide activity screening; settings: pre-emerge, 14 days after application, scale 0-100
In short: as §2

Structure (SMILES): Cn1c(C(F)(F)F)cc(=O)n(-c2ccccc2NC(=O)c2ccc3ccccc3c2)c1=O [2-142]
- phytotoxicity rating CHEAL ([1]; 63 g ai/ha): 40
- phytotoxicity rating CHEAL ([1]; 250 g ai/ha): 70
- phytotoxicity rating DIGSA ([2]; 63 g ai/ha): 0
- phytotoxicity rating DIGSA ([2]; 250 g ai/ha): 0
- phytotoxicity rating SETVI ([3]; 63 g ai/ha): 0
- phytotoxicity rating SETVI ([3]; 250 g ai/ha): 0
- phytotoxicity rating IPOHE ([4]; 63 g ai/ha): 0
- phytotoxicity rating IPOHE ([4]; 250 g ai/ha): 0
- phytotoxicity rating ABUTH ([5]; 63 g ai/ha): 0
- phytotoxicity rating ABUTH ([5]; 250 g ai/ha): 0
- phytotoxicity rating CASOB ([6]; 63 g ai/ha): 0
- phytotoxicity rating CASOB ([6]; 250 g ai/ha): 0
- phytotoxicity rating ECHCG ([7]; 63 g ai/ha): 0
- phytotoxicity rating ECHCG ([7]; 250 g ai/ha): 0
- phytotoxicity rating SORHA ([8]; 63 g ai/ha): 0
- phytotoxicity rating SORHA ([8]; 250 g ai/ha): 0
- CHEAL phytotoxicity rating ([9]; 63 g ai/ha): 20
- CHEAL phytotoxicity rating ([9]; 250 g ai/ha): 60
- DIGSA phytotoxicity rating ([10]; 63 g ai/ha): 0
- DIGSA phytotoxicity rating ([10]; 250 g ai/ha): 0
- SETVI phytotoxicity rating ([11]; 63 g ai/ha): 0
- SETVI phytotoxicity rating ([11]; 250 g ai/ha): 0
- AMARE phytotoxicity rating ([12]; 63 g ai/ha): 0
- AMARE phytotoxicity rating ([12]; 250 g ai/ha): 40
- IPOHE phytotoxicity rating ([13]; 63 g ai/ha): 0
- IPOHE phytotoxicity rating ([13]; 250 g ai/ha): 50
- ABUTH phytotoxicity rating ([14]; 63 g ai/ha): 0
- ABUTH phytotoxicity rating ([14]; 250 g ai/ha): 40
- CASOB phytotoxicity rating ([15]; 63 g ai/ha): 0
- CASOB phytotoxicity rating ([15]; 250 g ai/ha): 10
- ECHCG phytotoxicity rating ([16]; 63 g ai/ha): 0
- ECHCG phytotoxicity rating ([16]; 250 g ai/ha): 0
- phytotoxicity rating CORN (crop damage) ([17]; 63 g ai/ha): 0
- phytotoxicity rating CORN (crop damage) ([17]; 250 g ai/ha): 0
- phytotoxicity rating RICE (crop damage) ([18]; 63 g ai/ha): 0
- phytotoxicity rating RICE (crop damage) ([18]; 250 g ai/ha): 0
- CORN phytotoxicity rating (crop damage) ([19]; 63 g ai/ha): 10
- CORN phytotoxicity rating (crop damage) ([19]; 250 g ai/ha): 15
- RICE phytotoxicity rating (crop damage) ([20]; 63 g ai/ha): 10
- RICE phytotoxicity rating (crop damage) ([20]; 250 g ai/ha): 0
- phytotoxicity rating AMARE ([21]; 63 g ai/ha): 0
- phytotoxicity rating AMARE ([21]; 250 g ai/ha): 40

Structure (SMILES): COc1c(Cl)cc(F)c(-n2c(=O)cc(C(F)(F)F)n(C)c2=O)c1NC(=O)COc1ccc(Cl)cc1Cl [2-154]
- phytotoxicity rating CHEAL ([1]; 63 g ai/ha): 100
- phytotoxicity rating CHEAL ([1]; 250 g ai/ha): 100
- phytotoxicity rating DIGSA ([2]; 63 g ai/ha): 85
- phytotoxicity rating DIGSA ([2]; 250 g ai/ha): 95
- phytotoxicity rating SETVI ([3]; 63 g ai/ha): 70
- phytotoxicity rating SETVI ([3]; 250 g ai/ha): 100
- phytotoxicity rating IPOHE ([4]; 63 g ai/ha): 80
- phytotoxicity rating IPOHE ([4]; 250 g ai/ha): 100
- phytotoxicity rating ABUTH ([5]; 63 g ai/ha): 100
- phytotoxicity rating ABUTH ([5]; 250 g ai/ha): 100
- phytotoxicity rating CASOB ([6]; 63 g ai/ha): 60
- phytotoxicity rating CASOB ([6]; 250 g ai/ha): 95
- phytotoxicity rating ECHCG ([7]; 63 g ai/ha): 50
- phytotoxicity rating ECHCG ([7]; 250 g ai/ha): 95
- phytotoxicity rating SORHA ([8]; 63 g ai/ha): 80
- phytotoxicity rating SORHA ([8]; 250 g ai/ha): 95
- CHEAL phytotoxicity rating ([9]; 63 g ai/ha): 100
- CHEAL phytotoxicity rating ([9]; 250 g ai/ha): 100
- DIGSA phytotoxicity rating ([10]; 63 g ai/ha): 10
- DIGSA phytotoxicity rating ([10]; 250 g ai/ha): 85
- SETVI phytotoxicity rating ([11]; 63 g ai/ha): 40
- SETVI phytotoxicity rating ([11]; 250 g ai/ha): 95
- AMARE phytotoxicity rating ([12]; 63 g ai/ha): 100
- AMARE phytotoxicity rating ([12]; 250 g ai/ha): 100
- IPOHE phytotoxicity rating ([13]; 63 g ai/ha): 100
- IPOHE phytotoxicity rating ([13]; 250 g ai/ha): 100
- ABUTH phytotoxicity rating ([14]; 63 g ai/ha): 100
- ABUTH phytotoxicity rating ([14]; 250 g ai/ha): 100
- CASOB phytotoxicity rating ([15]; 63 g ai/ha): 50
- CASOB phytotoxicity rating ([15]; 250 g ai/ha): 100
- ECHCG phytotoxicity rating ([16]; 63 g ai/ha): 80
- ECHCG phytotoxicity rating ([16]; 250 g ai/ha): 95
- phytotoxicity rating CORN (crop damage) ([17]; 63 g ai/ha): 10
- phytotoxicity rating CORN (crop damage) ([17]; 250 g ai/ha): 90
- phytotoxicity rating RICE (crop damage) ([18]; 63 g ai/ha): 35
- phytotoxicity rating RICE (crop damage) ([18]; 250 g ai/ha): 70
- CORN phytotoxicity rating (crop damage) ([19]; 63 g ai/ha): 10
- CORN phytotoxicity rating (crop damage) ([19]; 250 g ai/ha): 85
- RICE phytotoxicity rating (crop damage) ([20]; 63 g ai/ha): 65
- RICE phytotoxicity rating (crop damage) ([20]; 250 g ai/ha): 90
- phytotoxicity rating AMARE ([21]; 63 g ai/ha): 100
- phytotoxicity rating AMARE ([21]; 250 g ai/ha): 100
